Measured values: US9408866B2, “Method for detoxification or measurement of at least one compound or at least one fluid in a host body” (NIVA, priority 2012, dated 2016)
Marks after values point to notes of the source that are not given here.

Columns and labels:
[1] = Contaminant masses in explanted silicone breast prostheses (acetone extraction, GC-MS); type: in vivo, human
Description: Silicone prostheses were obtained following breast implant surgery during a period spanning from July 2010 to January 2012. Reasons for explanation ranged from severe capsular contracture to a wish for a change in prosthesis size.
Prostheses were collected during surgical explanation from patients and wrapped individually in clean aluminium foil and stored in labelled plastic bags.
As soon as possible after, samples were stored in a freezer. Samples were then transported on ice to the laboratory and stored at −20° C. until analysis. For this proof-of-concept study, 9 prostheses were extracted and analysed. […] Two prostheses were duplicates and their analysis aimed to investigate the reproducibility of the analytical steps as well as of the representativeness of the sampling (samples 2, 6, and 9 in Table 1). All prostheses were made of medical silicone gel enclosed in an outer silicone shell filled with gel with various degree of cohesiveness. Differences between prostheses from various producers include volume, type of silicone material, surface texture and thickness of the outer shell and cohesive degree of the filling gel. Prostheses were tinted and tinting from light yellow to orange appeared (from visual inspection only) dependent on exposure time. […]
Silicone prosthesis extraction were performed in batches of 10-12 samples and included a blank prosthesis (volume of 200-450 cm^3), a spiked prosthesis to assess extraction efficiency and a solvent blank to evaluate potential contamination during extraction and extract clean-up. Extraction of the whole prostheses was undertaken in pre-baked 2 L beakers kept in the dark to prevent photo degradation. Samples were brought to room temperature and the surface was rinsed with ultrapure water and dried with a clean tissue. Connective tissue capsule attached to the surface of prostheses were removed. Samples were extracted by soaking in 1 L of acetone for 24 hours. Acetone was chosen for its low capacity to swell the silicone matrix and because of the ease with which it can volatilise. Recovery standards for organochlorines, PCBs and PBDEs (including for BDE-209) were added to the acetone. It was expected that 24 hours is sufficient for chemicals (present in either phases) to partition between the solvent phase and the silicone prosthesis. The acetone was replaced by another 1 L of acetone and samples were extracted for a further 24 hours. The two volumes of acetone were combined and reduced under a gentle stream of nitrogen. Prostheses were weighed before and after solvent extraction to determine the total amount of silicone oils and other substances removed from the matrix during solvent extraction. A second set of internal standards was used to evaluate possible losses during the sample clean-up step. The solvent was changed to isohexane and sample clean-up consisted of repeated sulphuric acid treatment until no colouring of the extract could be observed. Extract were then passed through a silica-filled solid phase extraction column and eluted with dichloromethane or isohexane. Extracts were reduced to an adequate volume before analysis.
Analytes were separated on a 30 m-long DB-5MS column (0.25 mm i.d. and 0.25 μm film thickness, Agilent JW Scientific, Santa Clara, USA) following 1 μL pulsed splitless injection (pulse pressure 20 psi for 1.2 min, injector temperature of 300° C.). The helium gas flow was set to 1.2 mL min^−1 and the GC oven temperature programme consisted of a step at 60° C. (held for 2 min) before an increase to 250° C. (at the rate 7° C. min^−1) and a final increase to 310° C. (at the rate of 15° C. min^−1) with this temperature held constant for a further 5 min. Ion source, quadrupole and transfer line temperatures were set to 230, 150 and 280° C., respectively. Quantification was performed using the relative response of surrogate internal standards (CB-30, CB-53 and CB-204) and 7-point calibration curves. […]

[2] = seal lipids, taken from Jahnke et al. (2008); cited from earlier work
[3] = POP concentration in lipids estimated from concentrations measured in prostheses; type: in vivo, human; settings: estimated from silicone prosthesis concentrations, silicone density of 1.0 and Klip-sil values
Procedure: The representativeness and suitability of POP concentrations measured in explanted silicone prostheses can be evaluated through comparison with literature data on POP levels measured in breast milk or blood serum from Norwegian women. Using seal oil lipid-to-silicone partition coefficients, Klip-sil for PCBs and DDTs, estimates of POP concentrations in lipids of participants of the present invention were calculated. This approach assumes that the influence of the type of silicone and of lipids on lipid-silicone partition coefficients is minor.

[4] = mean, Norwegian women (n = 20) age 25-59, Thomsen et al. (2007); cited from earlier work
[5] = milk from Norwegian women (n = 70), Thomsen et al. (2011); cited from earlier work
[6] = Sample 2, duplicate explanted prostheses analysed in the same batch

SMILES	Prosthesis contaminant mass, Mean [1, 6]	Klip-sil (lipid-silicone partition coefficient) [2]	Estimated Clipid [3]	Measured Cserum [4]	Measured Cmilk (median with range in brackets) [5]	Prosthesis contaminant mass, Mean ([1]; human, in vivo)
Brc1ccc(Oc2ccc(Br)cc2Br)cc1 [BDE-28]	0.5 ng sample^−1					
Brc1ccc(Oc2ccc(Br)cc2Br)c(Br)c1 [BDE-47]	1.6 ng sample^−1					
Brc1ccc(Oc2ccc(Br)c(Br)c2)cc1Br [BDE-77]	0.8 ng sample^−1					
Brc1cc(Br)c(Oc2cc(Br)c(Br)cc2Br)cc1Br [BDE-153]	3.7 ng sample^−1					
Brc1cc(Br)c(Oc2cc(Br)c(Br)cc2Br)c(Br)c1 [BDE-154]	0.5 ng sample^−1					
Brc1c(Br)c(Br)c(Oc2c(Br)c(Br)c(Br)c(Br)c2Br)c(Br)c1Br [BDE-209]	6.5 ng sample^−1					
Clc1ccc(Cl)c(-c2cc(Cl)ccc2Cl)c1 [CB-52]		19.2 g/g				
Clc1ccc(Cl)c(-c2cc(Cl)c(Cl)cc2Cl)c1 [CB-101]	7.6 ng sample^−1	26.3 g/g	0.5 ng/g	5.8 ng g^−1 lipid	6.4 (1.8-36)^f ng g^−1 lipid	
Clc1ccc(-c2ccc(Cl)c(Cl)c2Cl)cc1Cl [CB-105]	11 ng sample^−1	35.4 g/g	1.5 ng/g		1.8 (0.89-3.2)^f ng g^−1 lipid	
Clc1ccc(-c2cc(Cl)c(Cl)cc2Cl)cc1Cl [CB-118]	52 ng sample^−1	35.2 g/g	7.5 ng/g	8.0 ng g^−1 lipid	9.3 (4.0-15)^f ng g^−1 lipid	
Clc1cc(Cl)c(-c2ccc(Cl)c(Cl)c2Cl)cc1Cl [CB-138]	123 ng sample^−1	34.0 g/g	27 ng/g	20 ng g^−1 lipid	16 (8-30)^f ng g^−1 lipid	
Clc1cc(Cl)c(-c2cc(Cl)c(Cl)cc2Cl)cc1Cl [CB-153]	252 ng sample^−1	38.1 g/g	62 ng/g	43 ng g^−1 lipid	38 (20-68) ng g^−1 lipid	
Clc1ccc(-c2cc(Cl)c(Cl)c(Cl)c2Cl)cc1Cl [CB-156]	15 ng sample^−1	50.8 g/g	4.5 ng/g		3.2 (1.5-5.9)^f ng g^−1 lipid	
Clc1cc(Cl)c(-c2cc(Cl)c(Cl)c(Cl)c2Cl)cc1Cl [CB-180]	9.3 ng sample^−1	49.4 g/g	4.2 ng/g	34 ng g^−1 lipid	17 (8.5-32)^f ng g^−1 lipid	
Clc1c(Cl)c(Cl)c(Cl)c(Cl)c1Cl [HCB, hexachlorobenzene]	181 ng sample^−1		10.9 ng/g			
ClC(Cl)=C(Cl)c1c(Cl)c(Cl)c(Cl)c(Cl)c1Cl [OCS, octachlorostyrene]						3.5 ng sample^−1
Clc1cc(Cl)c(Cl)c(Cl)c1Cl [PeCB, pentachlorobenzene]	5.6 ng sample^−1					
Clc1ccc(C(c2ccccc2Cl)C(Cl)(Cl)Cl)cc1 (centres unmarked) [o,p′-DDT]		21.3 g/g	0.8 ng/g			
ClC(Cl)=C(c1ccc(Cl)cc1)c1ccc(Cl)cc1 [p,p′-DDE]	543 ng sample^−1					
Clc1ccc(C(c2ccc(Cl)cc2)C(Cl)(Cl)Cl)cc1 [p,p′-DDT]	38 ng sample^−1	50.7 g/g	5.7 ng/g			
